Experimental data: patent US7429579B2, “Tetrahydrobenzazepine derivatives useful as modulators of dopamine D3 receptors (antipsychotic agents)” (SmithKline Beecham, PLC, priority 2000, dated 2008)

Target: T1, dopamine D3 receptor (Homo sapiens, UniProt P35462)
T1 construct: expressed in transfected cells; host or cells: CHO cells (crude cell membranes)
Assay: Binding experiments on cloned dopamine receptors: displacement of [125I]-Iodosulpride
Details: cloned human D3 receptor expressed in CHO cells, [125I]-Iodosulpride displacement; pKi accurate to about ±0.2-0.3
Protocol: Binding Experiments on Cloned Dopamine (e.g. D2, D3 and D4) Receptors
Cultures were grown as monolayers or in suspension in standard cell culture media. Cells were recovered by scraping (from monolayers) or by centrifugation (from suspension cultures), and were washed two or three times by suspension in phosphate buffered saline followed by collection by centrifugation. Cell pellets were stored frozen at −80° C. Crude cell membranes were prepared by homogenisation followed by high-speed centrifugation, and characterisation of cloned receptors achieved by radioligand binding.
Preparation of Cho Cell Membranes: Cell Pellets were Gently Thawed at Room temperature, and resuspended in about 20 volumes of ice-cold Extraction buffer; 5 mM EDTA, 50 mM Trizma pre-set crystals (pH7.4@37° C.), 1 mM MgCl2, 5 mM KCl and 120 mM NaCl. The suspension was homogenised using an Ultra-Turrax at full speed for 15 seconds. The homogenate was centrifuged at 18,000 r.p.m for 15 min at 4° C. in a Sorvall RC5C centrifuge. Supernatant was discarded, and homogenate re-suspended in extraction buffer then centrifugation was repeated. The final pellet was resuspended in 50 mM Trizma pre-set crystals (pH 7.4 @ 37° C.) and stored in 1 ml aliquot tubes at −80° C. (D2=3.0E+08 cells, D3=7.0E+07 cells and D4=1.0E+08 cells).
The total volume is 0.2 ml and incubated in a water bath at 37° C. for 40 minutes. Following incubation, samples were filtered onto GF/B Unifilters using a Can berra Packard Filtermate, and washed four times with ice-cold 50 mM Trizma pre-set crystals (pH 7.4 @ 37° C.). The radioactivity on the filters was measured using a Canberra Packard Topcount Scintillation counter. […] For competition curves, 10 serial log concentrations of competing cold drug were used (Dilution range: 10 μM-10 pM). Competition curves were analysed using Inflexion, an iterative curve fitting programme in Excel. Results were expressed as pKi values where pKi=−log 10 [Ki].

T1 sequence (P35462 whole entry): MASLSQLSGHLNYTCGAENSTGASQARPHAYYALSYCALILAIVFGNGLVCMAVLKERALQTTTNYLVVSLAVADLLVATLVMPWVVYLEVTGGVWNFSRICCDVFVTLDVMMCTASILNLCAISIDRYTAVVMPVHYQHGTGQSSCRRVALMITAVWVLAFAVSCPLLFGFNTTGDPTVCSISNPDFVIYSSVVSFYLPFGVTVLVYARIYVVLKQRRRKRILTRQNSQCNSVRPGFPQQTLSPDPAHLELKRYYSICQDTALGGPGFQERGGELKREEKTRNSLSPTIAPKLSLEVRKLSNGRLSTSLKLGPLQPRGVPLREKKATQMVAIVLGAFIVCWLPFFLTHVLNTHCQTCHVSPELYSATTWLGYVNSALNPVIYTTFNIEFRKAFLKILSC

- Ki: 0.316 to 10 nM
SMILES: Cc1cc(-c2ccc3c(c2)CCN(CCCCSc2nnc(-c4ccc5ncccc5c4)n2C)CC3)no1 [Example 176, 7-(5-Methyl-3-isoxazolyl)-3-(4-{[4-methyl-5-(6-quinolinyl)-4H-1,2,4-triazol-3-yl]thio}butyl)-2,3,4,5-tetrahydro-1H-3-benzazepine]
